This note sets out measurements from patent publication US20240083886A1, “HETEROCYCLIC GLP-1 AGONISTS” (Gasherbrum Bio, Inc., priority 2020, published 2024).

This experiment has as its target GLP-1 Receptor (Homo sapiens, UniProt P43220). Nature of the experiment: GLP-1R agonist cAMP stimulation assay. The experiment is classed as cell-based. The method, then:
Activation of GLP-1 receptor is known to stimulate cyclic AMP (cAMP) production in cells which indicates primary coupling to the Gαs subunit of the G protein heterotrimeric complex.
To optimize functional activity directed toward Gαs coupling, a HEK293/CRE-Luc cell line developed by HDB stably expressing the GLP-1 Receptor was used. 200× concentration of compound working solutions were prepared (Agilent Technologies Bravo) with ½ log serial dilution in 384-well Echo LDV plate (Labcyte, Cat #LP-0200). 50 nL/well 200× concentration of compound working solutions were moved to 384-well white low volume plate (Greiner, Cat #784075) using Labcyte ECHO550. 1×10^5 cells/mL HEK293/GLP1R/CRE-LUC(HD Biosciences) cell suspensions prepared with assay buffer[DPBS containing 0.5 mM IBMX(Sigma, Cat #15879) and 0.1% BSA (GENVIEW, Cat #FA016-100 g)], 10 uL cell suspensions were added to each well of previous generated assay plate which already contains 50 nl compound at 200×concentration using ThermoFisher Multidrop Combi (1000 cells/well). Seal the plate and incubate at 37° C. with 5% CO2 for 30 min.
After incubation the cAMP assay signal was generated using cAMP dynamic 2 Kit (Cisbio). 5 μL cAMP-d2 working solution was added to each well, followed with 5 μL Anti-cAMP antibody-cryptate working solution added to each well using ThermoFisher Multidrop Combi. Incubate at room temperature for 1 hour protected from light. Read the fluorescence at 665 and 615 nm with Reader PerkinElmer EnVision.
% Activity=100%×(mean RLU of test sample−mean RLU of vehicle control)/(mean RLU of MAX control−mean RLU of vehicle control))

Setting [1] is: HEK293/GLP1R/CRE-LUC cells, cAMP dynamic 2 Kit (Cisbio), 30 min incubation at 37° C., read-out: EC50.

Where two headings read alike, the source gives them in different places.

GLP-1 Receptor, sequence (P43220 24-463, species assumed): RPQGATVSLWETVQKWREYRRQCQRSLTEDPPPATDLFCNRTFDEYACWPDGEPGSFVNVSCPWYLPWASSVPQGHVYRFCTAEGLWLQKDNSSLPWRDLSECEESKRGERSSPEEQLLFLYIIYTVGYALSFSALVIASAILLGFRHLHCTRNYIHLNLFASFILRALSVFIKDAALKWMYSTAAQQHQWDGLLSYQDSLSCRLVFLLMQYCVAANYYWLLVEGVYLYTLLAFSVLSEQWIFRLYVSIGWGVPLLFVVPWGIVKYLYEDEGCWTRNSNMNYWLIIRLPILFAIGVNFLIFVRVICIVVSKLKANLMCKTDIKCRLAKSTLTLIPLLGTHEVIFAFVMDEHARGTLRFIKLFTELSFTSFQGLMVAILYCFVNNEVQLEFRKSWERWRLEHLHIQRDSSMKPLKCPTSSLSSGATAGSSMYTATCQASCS

In the case of `FC(F)(F)c1nnc(-c2ccc3c(c2)nc(CN2CCC(Oc4cccc(Cc5ccc(Cl)cc5)n4)CC2)n3C[C@@H]2CCO2)[nH]1` [Compound 136a, 2-{[4-({6-[(4-chlorophenyl)methyl]pyridin-2-yl}oxy)piperidin-1-yl]methyl}-1-{[(2S)-oxetan-2-yl]methyl}-5-[5-(trifluoromethyl)-4H-1,2,4-triazol-3-yl]-1H-1,3-benzodiazole], the EC50 worked out at 0.22 nM.

Turning to `N#CC1(Cn2c(CN3CCC(Oc4ccnc(Cc5ccc(Cl)cc5)n4)CC3)nc3cc(-c4noc(=O)[nH]4)ccc32)CC1` [Compound 155, 1-[(2-{[4-({2-[(4-chlorophenyl)methyl]pyrimidin-4-yl}oxy)piperidin-1-yl]methyl}-5-(5-oxo-4,5-dihydro-1,2,4-oxadiazol-3-yl)-1H-1,3-benzodiazol-1-yl)methyl]cyclopropane-1-carbonitrile], the EC50 under setting [1] was 0.32 nM.

In the case of `O=C(O)c1ccc2c(c1)nc(CN1CCC(Oc3cccc(Cc4ccc(Cl)cc4F)n3)CC1)n2C[C@@H]1CCO1` [Compound 188a, 2-{[4-({6-[(4-chloro-2-fluorophenyl)methyl]pyridin-2-yl}oxy)piperidin-1-yl]methyl}-1-{[(2S)-oxetan-2-yl]methyl}-1H-1,3-benzodiazole-5-carboxylic acid], the concentration for a half-maximal effect (EC50) under setting [1] amounted to 16 nM.

For the compound `FC(F)(F)c1nnc(-c2ccc3c(c2)nc(CN2CCC(Oc4ccnc(Cc5ccc(Cl)cc5)n4)CC2)n3C[C@H]2CCOC2)[nH]1` [Compound 148a, 2-{[4-({2-[(4-chlorophenyl)methyl]pyrimidin-4-yl}oxy)piperidin-1-yl]methyl}-1-{[(3R)-oxolan-3-yl]methyl}-5-[5-(trifluoromethyl)-4H-1,2,4-triazol-3-yl]-1H-1,3-benzodiazole], the EC50 under setting [1] was 1.4 nM.

In the case of `Cc1ccc(C(=O)Nc2ccc3c(c2)nc(CN2CCC(Oc4ccnc(Cc5ccc(Cl)cc5F)n4)CC2)n3C[C@@H]2CCO2)cn1` [Compound 113a, N-(2-{[4-({2-[(4-chloro-2-fluorophenyl)methyl]pyrimidin-4-yl}oxy)piperidin-1-yl]methyl}-1-{[(2S)-oxetan-2-yl]methyl}-1H-1,3-benzodiazol-5-yl)-6-methylpyridine-3-carboxamide], the EC50 under setting [1] was 0.18 nM.

Compound `FC(F)(F)c1nnc(-c2cc3nc(CN4CCC(Oc5ccnc(Cc6ccc(Cl)cc6)n5)CC4)n(C[C@@H]4CCO4)c3cn2)[nH]1` [Compound 150a, 2-[(4-chlorophenyl)methyl]-4-({1-[(3-{[(2S)-oxetan-2-yl]methyl}-6-[5-(trifluoromethyl)-4H-1,2,4-triazol-3-yl]-3H-imidazo[4,5-c]pyridin-2-yl)methyl]piperidin-4-yl}oxy)pyrimidine] gave a concentration for a half-maximal effect (EC50) of 0.036 nM.

Take `Fc1cc(Cl)ccc1Cc1cccc(OC2CCN(Cc3nc4cc(-c5nnn[nH]5)ccc4n3C[C@@H]3CCO3)CC2)n1` [Compound 110a, 2-{[4-({6-[(4-chloro-2-fluorophenyl)methyl]pyridin-2-yl}oxy)piperidin-1-yl]methyl}-1-{[(2S)-oxetan-2-yl]methyl}-5-(1H-1,2,3,4-tetrazol-5-yl)-1H-1,3-benzodiazole]: the EC50 under setting [1] came out at 0.38 nM.

Regarding `Fc1cc(Cl)ccc1Cc1cccc(OC2CCN(Cc3nc4cc(-c5nnc(C(F)(F)F)[nH]5)nnc4n3C[C@@H]3CCO3)CC2)n1` [Compound 181a, 2-[(4-chloro-2-fluorophenyl)methyl]-6-({1-[(7-{[(2S)-oxetan-2-yl]methyl}-3-[5-(trifluoromethyl)-4H-1,2,4-triazol-3-yl]-7H-imidazo[4,5-c]pyridazin-6-yl)methyl]piperidin-4-yl}oxy)pyridine], the EC50 under setting [1] was found to be 0.58 nM.

In the case of `CC(=O)Nc1ccc2c(c1)nc(CN1CCC(Oc3cccc(Cc4ccc(Cl)cc4F)n3)CC1)n2C[C@@H]1CCO1` [Compound 160a], the EC50 under setting [1] was 12.2 nM.

`FC1(F)CCN(Cc2cccc(OC3CCN(Cc4nc5cc(-c6nnc(C(F)(F)F)[nH]6)ncc5n4C[C@@H]4CCO4)CC3)n2)CC1` [Compound 184a, 2-[(4,4-difluoropiperidin-1-yl)methyl]-6-({1-[(3-{[(2S)-oxetan-2-yl]methyl}-6-[5-(trifluoromethyl)-4H-1,2,4-triazol-3-yl]-3H-imidazo[4,5-c]pyridin-2-yl)methyl]piperidin-4-yl}oxy)pyridine]: the EC50 under setting [1] was determined as 13 nM.

Regarding `O=C(Nc1ccc2c(c1)nc(CN1CCC(Oc3ccnc(Cc4ccc(Cl)cc4F)n3)CC1)n2C[C@@H]1CCO1)c1ccc(C2CC2)nc1` [Compound 117a, N-(2-{[4-({2-[(4-chloro-2-fluorophenyl)methyl]pyrimidin-4-yl}oxy)piperidin-1-yl]methyl}-1-{[(2S)-oxetan-2-yl]methyl}-1H-1,3-benzodiazol-5-yl)-6-cyclopropylpyridine-3-carboxamide], the EC50 under setting [1] is 5.9 nM.

`Cc1ncc(-c2ccc3c(c2)nc(CN2CCC(Oc4ccnc(Cc5ccc(Cl)cc5)n4)CC2)n3C[C@@H]2CCO2)s1` [Compound 129a, 2-{[4-({2-[(4-chlorophenyl)methyl]pyrimidin-4-yl}oxy)piperidin-1-yl]methyl}-5-(2-methyl-1,3-thiazol-5-yl)-1-{[(2S)-oxetan-2-yl]methyl}-1H-1,3-benzodiazole]: the response was half-maximal at 7.6 nM (EC50).

On to `Cc1cncc(C(=O)Nc2ccc3c(c2)nc(CN2CCC(Oc4ccnc(Cc5ccc(Cl)cc5)n4)CC2)n3C[C@@H]2CCO2)c1` [Compound 101a, N-(2-{[4-({2-[(4-chlorophenyl)methyl]pyrimidin-4-yl}oxy)piperidin-1-yl]methyl}-1-{[(2S)-oxetan-2-yl]methyl}-1H-1,3-benzodiazol-5-yl)-5-methylpyridine-3-carboxamide], for which the EC50 under setting [1] was 0.081 nM.

On to `Cc1nnc(-c2cc3nc(CN4CCC(Oc5nc(Cc6ccc(Cl)cc6F)ncc5F)CC4)n(C[C@@H]4CCO4)c3cn2)[nH]1` [Compound 170a, 2-[(4-chloro-2-fluorophenyl)methyl]-5-fluoro-4-[(1-{[6-(5-methyl-4H-1,2,4-triazol-3-yl)-3-{[(2S)-oxetan-2-yl]methyl}-3H-imidazo[4,5-c]pyridin-2-yl]methyl}piperidin-4-yl)oxy]pyrimidine], for which the EC50 was determined as 0.13 nM.

For the compound `O=C(O)c1ccc2c(c1)nc(CN1CCC(Oc3nc(Cc4ccc(Cl)cc4F)ncc3F)CC1)n2C[C@@H]1CCO1` [Compound 165a, 2-{[4-({2-[(4-chloro-2-fluorophenyl)methyl]-5-fluoropyrimidin-4-yl}oxy)piperidin-1-yl]methyl}-1-{[(2S)-oxetan-2-yl]methyl}-1H-1,3-benzodiazole-5-carboxylic acid], the EC50 under setting [1] was determined as 12 nM.

`N#CC1(Cn2c(CN3CCC(Oc4cccc(Cc5ccc(Cl)cc5F)n4)CC3)nc3cc(-c4nnc(C(F)(F)F)[nH]4)ncc32)CC1` [Compound 179, 1-[(2-{[4-({6-[(4-chloro-2-fluorophenyl)methyl]pyridin-2-yl}oxy)piperidin-1-yl]methyl}-6-[5-(trifluoromethyl)-4H-1,2,4-triazol-3-yl]-3H-imidazo[4,5-c]pyridin-3-yl)methyl]cyclopropane-1-carbonitrile]: under setting [1], the EC50 was 0.49 nM.

As to `Fc1cc(Cl)ccc1COc1cccc(N[C@@H]2CCN(Cc3nc4cc(-c5nnc(C(F)(F)F)[nH]5)ncc4n3C[C@@H]3CCO3)C2)n1` [Compound 174a, 6-[(4-chloro-2-fluorophenyl)methoxy]-N-[(3R)-1-[(3-{[(2S)-oxetan-2-yl]methyl}-6-[5-(trifluoromethyl)-4H-1,2,4-triazol-3-yl]-3H-imidazo[4,5-c]pyridin-2-yl)methyl]pyrrolidin-3-yl]pyridin-2-amine], under setting [1], the EC50 is 3.4 nM.

For the compound `Clc1ccc(Cc2nccc(OC3CCN(Cc4nc5cc(-c6nnn[nH]6)ccc5n4C[C@@H]4CCO4)CC3)n2)cc1` [Compound 107a, 2-{[4-({2-[(4-chlorophenyl)methyl]pyrimidin-4-yl}oxy)piperidin-1-yl]methyl}-1-{[(2S)-oxetan-2-yl]methyl}-5-(1H-1,2,3,4-tetrazol-5-yl)-1H-1,3-benzodiazole], under setting [1], the EC50 was 0.2 nM.

Consider `Fc1cc(Cl)ccc1Cc1nccc(OC2CCN(Cc3nc4cc(-c5nnc(C(F)(F)F)[nH]5)cnc4n3C[C@@H]3CCO3)CC2)n1` [Compound 142a, 2-[(4-chloro-2-fluorophenyl)methyl]-4-({1-[(3-{[(2S)-oxetan-2-yl]methyl}-6-[5-(trifluoromethyl)-4H-1,2,4-triazol-3-yl]-3H-imidazo[4,5-b]pyridin-2-yl)methyl]piperidin-4-yl}oxy)pyrimidine], for which the EC50 under setting [1] was found to be 0.048 nM.

Turning to `O=c1[nH]c(-c2ccc3c(c2)nc(CN2CCC(Oc4ccnc(Cc5ccc(Cl)cc5)n4)CC2)n3C[C@@H]2CCO2)no1` [Compound 108a, 3-(2-{[4-({2-[(4-chlorophenyl)methyl]pyrimidin-4-yl}oxy)piperidin-1-yl]methyl}-1-{[(2S)-oxetan-2-yl]methyl}-1H-1,3-benzodiazol-5-yl)-4,5-dihydro-1,2,4-oxadiazol-5-one], the half-maximal effective concentration (EC50) under setting [1] worked out at 0.38 nM.

On to `Cc1ncccc1C(=O)Nc1ccc2c(c1)nc(CN1CCC(Oc3ccnc(Cc4ccc(Cl)cc4)n3)CC1)n2C[C@@H]1CCO1` [Compound 103a, N-(2-{[4-({2-[(4-chlorophenyl)methyl]pyrimidin-4-yl}oxy)piperidin-1-yl]methyl}-1-{[(2S)-oxetan-2-yl]methyl}-1H-1,3-benzodiazol-5-yl)-2-methylpyridine-3-carboxamide], for which the EC50 under setting [1] came to 0.093 nM.
